Laboratory results published in US20260274857A1, “CRYSTAL OF DIHYDROPYRIDINONE DERIVATIVE OR SOLVATE THEREOF” (Shionogi & Co., Ltd., priority 2022, published 2026).

Columns and labels:
Type in all cases: physicochemical
[1] = Solid stability test: storage stability (amount of analogous substance by HPLC, appearance)
Protocol: For the solid stability of the crystal of the compound represented by Formula (I) obtained in Example 1 and the crystal of the compound represented by Formula (II) obtained in Example 16, the chemical stability under temperature, temperature and humidity conditions, and light irradiation was evaluated. The proportion (%) of the analogous substance produced by an HPLC method and the change in appearance were evaluated.
About 10 mg of the crystal was accurately weighed in a 2 mL glass container with a polyethylene stopper. After the glass container was closed, the glass container was stored at 40° C. or 60° C. for 2 weeks, 1 month, 2 months, 3 months, or 6 months. A sample stored at 40° C. is referred to as a 40° C. hermetically sealed product, and a sample stored at 60° C. is referred to as a 60° C. hermetically sealed product. In a state where the glass container was opened, the glass container was stored at a relative humidity of 75±5% at 40° C. or a relative humidity of 89±5% for 2 weeks, 1 month, 2 months, 3 months or 6 months, or in the presence of silica gel at 40° C. for 1 month, 2 months, 3 months or 6 months. A sample stored at 40° C. and a relative humidity of 75±5% or 89±5% is referred to as a 40° C. and 75% relative humidity (also referred to as 40±2° C./75±5% RH) or 40° C. and 89% relative humidity (also referred to as 40±2° C./89% RH) stored product, and a sample stored in the presence of silica gel at 40° C. is referred to as a 40° C. stored product. The −40° C. hermetically sealed product was used as a standard product.
The amount of the analogous substance was measured by an area percentage method by the HPLC method under the following conditions.
HPLC Conditions 1 were used for the crystal and amorphous substance of the compound represented by Formula (I) obtained in Example 1, and HPLC conditions 2 were used for the crystal of the compound represented by Formula (II) obtained in Example 16.
• Detector: ultraviolet absorptiometer (measurement wavelength: 260 nm) • Column: YMC-Triart C18 ExRS, S-1.9 μm, 3.0×100 mm • Column temperature: constant temperature at near 40° C. • Mobile phase A: 0.1% formic acid aqueous solution • Mobile phase B: acetonitrile • Flow rate: about 0.6 mL/min • Injection amount: 3 μL • Sample cooler temperature: about 6° C. • Feed of mobile phase: The mixing ratio of mobile phase A and mobile phase B was changed as shown in Table 18 to control concentration gradient.
Column: Cortecs (2.7 μm 3.0×100 mm)
Column temperature: 40° C.
UV detection wavelength: 254 nm

[2] = Powder solubility test (JP-1, JP-2, TCA/JP2); details: 37° C., 1 hour; for JP1 solubility: JP-1 solution; for TCA/JP2 solubility: JP-2 solution added with taurocholic acid; for JP2 solubility: JP-2 solution
Protocol: The solubility of the crystal of the present invention was evaluated with respect to the solubility when JP-1 solution, JP-2 solution, and JP-2 solution added with taurocholic acid (TCA/JP2) were used as a measurement medium. Evaluation was performed at a dissolved concentration (μg/mL) by an HPLC method.
About 1 mg of the crystal of the present invention was weighed in a 4 mL glass container, and 2 mL of JP-2 solution (1000 mL of water was added to 1.70 g of potassium dihydrogen phosphate and 1.775 g of anhydrous disodium hydrogen phosphate) was added to each container. The mixture was sealed with a polyethylene stopper with Teflon and silicone packing, shaken at 37° C. for 1 hour, and then filtered, and 400 μL of methanol was added to 800 μL of the filtrate to perform 1.5 fold dilution. Whether there were bubbles and precipitates was confirmed, and the compound of the crystal of the present invention was quantified using HPLC by an absolute calibration curve method to calculate the solubility.

[3] = Moisture adsorption/desorption isotherm measurement (DVS); details: for difference in water content between 0% RH and 95% RH: 25° C.
Excerpt: The moisture adsorption/desorption isotherm measurement is a measurement method for measuring the adsorption and desorption behavior of moisture by measuring a weight change in a solid as a measurement target under each relative humidity condition.
As a basic measurement method, based on the dry weight at 0% RH (relative humidity 0%), the relative humidity is increased every 5% or 10%, and after the weight is stabilized at each relative humidity, the amount of adsorbed water can be determined from the weight increase from the reference value. Similarly, the desorption amount of water can be measured by decreasing the relative humidity every 5% or 10% from 100% RH or 95% RH.
By plotting the value of the weight change at each relative humidity, an adsorption/desorption isotherm can be obtained.
Sorption and desorption of adhesion water and crystal water are affected by particle size, crystallinity, crystal habit, and the like, so that the measurement results may slightly change.
The crystals and amorphous substances obtained in each Example were weighed in an aluminum pan, and allowed to stand at 25° C. and a relative humidity of 0%. The measurement was started after the compound was sufficiently dried and the weight was stabilized, and the weight when the relative humidity changed from 0% to 95% by 5% was recorded. Next, the weight when the relative humidity changed from 95% to 0% by 5% was recorded.
Device: DVS Advantage manufactured by Surface Measurement Systems

[4] = Test Example 2: solid stability, 40° C. 89% RH 3 months, amount of analogous substance
Protocol: The crystal and amorphous substance of the compound represented by Formula (I) obtained in Example 1 were stored (40° C., 89% RH 3M) in a hermetically sealed container at 40° C. and a relative humidity of 89% for 3 months, and subjected to a solid stability test to evaluate the amount of an analogous substance.
The crystal or amorphous substance of the compound represented by Formula (I) obtained in Example 1 was dissolved in an acetonitrile aqueous solution (acetonitrile:water=1:1) to prepare a sample solution to be exactly 500 μg/mL.
The purity and the amount of the analogous substance were measured by an area percentage method under the HPLC conditions 1 described in Test Example 1.
The results of the crystal and amorphous substance of the compound represented by Formula (I) obtained in Example 1 are described in the following table. Impurities detected at a retention time (RT, retention time) of 17.527 minutes indicate an increase amount with respect to a standard product.

[5] = 40° C. Relative humidity 75%, 2 months
[6] = 40° C. hermetically sealed, 1 month
[7] = 40° C. hermetically sealed, 2 months
[8] = 40° C. hermetically sealed, 2 weeks
[9] = 60° C. hermetically sealed, 1 month
[10] = 60° C. hermetically sealed, 2 weeks
[11] = (Standard product) −40° C. hermetically sealed, 1 month
[12] = (Standard product) −40° C. hermetically sealed, 2 months

CS(=O)(=O)CC(=O)Nc1c2c(nn1CCCOC(F)(F)F)CC1(CCOc3cc(OCC(F)(F)F)ccc31)NC2=O (stereo not shown)
Amount (%) of total analogous substance [1, 5]: 0.68%
Amount (%) of total analogous substance [1, 6]: 0.65%
Amount (%) of total analogous substance [1, 7]: 0.66%
Amount (%) of total analogous substance [1, 8]: 0.64%
Amount (%) of total analogous substance [1, 9]: 0.85%
Amount (%) of total analogous substance [1, 10]: 0.76%
Amount (%) of total analogous substance [1, 11]: 0.61%
Amount (%) of total analogous substance [1, 12]: 0.62%

Cc1ccc(-n2nc3c(c2NC(=O)CS(C)(=O)=O)C(=O)NC2(CCOc4cc(F)cc(F)c42)C3)nc1 (stereo not shown)
Amount (%) of total analogous substance [1, 5]: 0.27%
Amount (%) of total analogous substance [1, 6]: 0.22%
Amount (%) of total analogous substance [1, 7]: 0.23%
Amount (%) of total analogous substance [1, 8]: 0.22%
Amount (%) of total analogous substance [1, 9]: 0.24%
Amount (%) of total analogous substance [1, 10]: 0.23%
Amount (%) of total analogous substance [1, 11]: 0.22%
Amount (%) of total analogous substance [1, 12]: 0.22%

Cc1ccc(-n2nc3c(c2NC(=O)CS(C)(=O)=O)C(=O)NC2(CCOc4cc(F)cc(F)c42)C3)nc1 (stereo not shown) [Compound crystal of Formula (I)]
JP1 solubility [2]: 0.0594 mg/mL
TCA/JP2 solubility [2]: 0.1431 mg/mL
JP2 solubility [2]: 0.0741 mg/mL

CS(=O)(=O)CC(=O)Nc1c2c(nn1CCCOC(F)(F)F)CC1(CCOc3cc(OCC(F)(F)F)ccc31)NC2=O (stereo not shown) [Compound crystal of Formula (II)]
JP1 solubility [2]: 0.0336 mg/mL
TCA/JP2 solubility [2]: 0.0736 mg/mL
JP2 solubility [2]: 0.0375 mg/mL

Cc1ccc(-n2nc3c(c2NC(=O)CS(C)(=O)=O)C(=O)N[C@@]2(CCOc4cc(F)cc(F)c42)C3)nc1 [amorphous substance of the compound represented by Formula (]
difference in water content between 0% RH and 95% RH ([3]; DVS): about 7.0%
impurities detected at a retention time of 17.527 minutes, increase with respect to standard product (in words) [4]: greatly increased

CS(=O)(=O)CC(=O)Nc1c2c(nn1CCCOC(F)(F)F)C[C@@]1(CCOc3cc(OCC(F)(F)F)ccc31)NC2=O [crystal of the compound represented by Formula (II) obtained]
hygroscopicity (in words) ([3]; DVS, 0% to 95% RH): no problem in hygroscopicity
difference in water content between 0% RH and 95% RH ([3]; DVS): about 0.4%
Moisture adsorption amount (%) ([3]; relative humidity 0.0%): 0.0000%
Moisture desorption amount (%) ([3]; relative humidity 0.0%): 0.0690%
Moisture adsorption amount (%) ([3]; relative humidity 5.0%): 0.0149%
Moisture desorption amount (%) ([3]; relative humidity 5.0%): 0.1029%
Moisture adsorption amount (%) ([3]; relative humidity 10.0%): 0.0250%
Moisture desorption amount (%) ([3]; relative humidity 10.0%): 0.1252%
Moisture adsorption amount (%) ([3]; relative humidity 15.0%): 0.0352%
Moisture desorption amount (%) ([3]; relative humidity 15.0%): 0.1435%
Moisture adsorption amount (%) ([3]; relative humidity 20.0%): 0.0494%
Moisture desorption amount (%) ([3]; relative humidity 20.0%): 0.1610%
Moisture adsorption amount (%) ([3]; relative humidity 25.0%): 0.0623%
Moisture desorption amount (%) ([3]; relative humidity 25.0%): 0.1773%
Moisture adsorption amount (%) ([3]; relative humidity 30.0%): 0.0758%
Moisture desorption amount (%) ([3]; relative humidity 30.0%): 0.1922%
Moisture adsorption amount (%) ([3]; relative humidity 35.0%): 0.0893%
Moisture desorption amount (%) ([3]; relative humidity 35.0%): 0.2077%
Moisture adsorption amount (%) ([3]; relative humidity 40.0%): 0.1042%
Moisture desorption amount (%) ([3]; relative humidity 40.0%): 0.2206%
Moisture adsorption amount (%) ([3]; relative humidity 45.0%): 0.1204%
Moisture desorption amount (%) ([3]; relative humidity 45.0%): 0.2348%
Moisture adsorption amount (%) ([3]; relative humidity 50.0%): 0.1387%
Moisture desorption amount (%) ([3]; relative humidity 50.0%): 0.2497%
Moisture adsorption amount (%) ([3]; relative humidity 55.0%): 0.1563%
Moisture desorption amount (%) ([3]; relative humidity 55.0%): 0.2659%
Moisture adsorption amount (%) ([3]; relative humidity 60.0%): 0.1746%
Moisture desorption amount (%) ([3]; relative humidity 60.0%): 0.2822%
Moisture adsorption amount (%) ([3]; relative humidity 65.0%): 0.2016%
Moisture desorption amount (%) ([3]; relative humidity 65.0%): 0.3038%
Moisture adsorption amount (%) ([3]; relative humidity 70.0%): 0.2334%
Moisture desorption amount (%) ([3]; relative humidity 70.0%): 0.3289%
Moisture adsorption amount (%) ([3]; relative humidity 75.0%): 0.2619%
Moisture desorption amount (%) ([3]; relative humidity 75.0%): 0.3464%
Moisture adsorption amount (%) ([3]; relative humidity 80.0%): 0.2937%
Moisture desorption amount (%) ([3]; relative humidity 80.0%): 0.3627%
Moisture adsorption amount (%) ([3]; relative humidity 85.0%): 0.3268%
Moisture desorption amount (%) ([3]; relative humidity 85.0%): 0.3782%
Moisture adsorption amount (%) ([3]; relative humidity 90.0%): 0.3695%
Moisture desorption amount (%) ([3]; relative humidity 90.0%): 0.4013%
Moisture adsorption amount (%) ([3]; relative humidity 95.0%): 0.4243%
Moisture desorption amount (%) ([3]; relative humidity 95.0%): 0.4243%
solid stability (in words) ([1]; temperature, temperature and humidity conditions, light irradiation, analogous substance by HPLC and appearance): excellent in solid stability under any conditions
